Source: US20240287054A1, “COMPOUNDS THAT BIND NON-CANONICAL G-QUADRUPLEX STRUCTURES AND METHODS OF MAKING AND USING THE SAME” (The U.S.A., as Represented by the Secretary, Department of …, priority 2021, published 2024)

Columns and labels:
[1] = target: five 5′Cy5-labeled G4s from cancer-relevant genes (BCL2, KRAS, mTOR, NRAS, telomeric DNA); assay: FIA selectivity profiling with five other 5′Cy5-labeled G4s; format: binding; details: five 5′Cy5-labeled G4s other than MYCN
[2] = tested on: dsDNA; assay: SPR binding to dsDNA; details: up to 5 μM compound injection
[3] = target: HIV HP-G4; assay: FIA binding test with HIV HP-G4 ((3+1) hybrid structure)
Description: (§1) In this study, FIA was used for validating the bindings between certain bivalent and MYCN G4 oligos. To measure the binding affinity, a solution of each compound was prepared in triplicate in a 96 well-plate (Costar, black side clear bottom), resulting in a final concentration of 100 nM (5% final DMSO in the working solution). Unlabeled MYCN G4 DNA was folded based on the above-mentioned annealing method, then added into the well plate resulting in different concentrations by a seral dilution. The plate was incubated at room temperature for 30 min, followed by centrifuging at 500 rpm for 2 minutes. The fluorescence intensity was then quantitatively recorded by a Synergy Mx microplate reader (BioTek) at Ex 340 nm/Em 500 nm. The fluorescence intensities were then normalized, and the binding affinity was calculated by fitting the curve using one-site total model in GraphPad Prism 8.3.1 software.
(§2) In addition to the DMS-footprinting study, the bivalent binding mode of compound B33 toward MYCN hairpin-G4 was also investigated by comparing HP-G4s with different folding types. Four reported HP-G4s with parallel structure (BCL2), (3+1) hybrid structure (HIV and PIM1-form1), and (2+2) chair-type structure (PIM1-form2) were examined by FIA binding test using compound B33 (FIGS. 41A, 41B, 42A, 42B, 43A, 43B, 44A, and 44B). […]

[4] = target: PIM1-form2 HP-G4; assay: FIA binding test with PIM1-form2 HP-G4 ((2+2) chair-type structure); details: read-out: binding affinity, PIM1-form2 HP-G4
Description: as §1, §2

[5] = tested on: MYCN mRNA; assay: qRT-PCR of MYCN mRNA in NBEB cells; format: cell-based; details: NBEB cells, 24, 36, 48 h, higher concentrations
Description: To examine the effects of G4-binding compounds on NBEB cells, live-cell imaging was performed using an Incucyte interface (described below). NBEB (5K/well), cells were seeded into 96-well plates in triplicate, treated with compound MY-8 at various concentrations (0-45 μM), and cultured until control wells reached confluence. For RT-qPCR and western blotting, NBEB (300K) cells were treated with MY-8 in 6-well dish for 48 h. To examine the time-dependent decrease in MYCNOs expression, cells were treated with 22.5 μM and 45 μM MY-8 and analyzed at various times (0, 4, 24, 48, 72 and 96 h). To validate cell viability, a Trypan Blue exclusion test was performed following treatment at 48 h and 96 h post treatment and the proportion of live versus dead cells was calculated using a hemocytometer.
Quantitative RT-PCR. Total RNA was extracted from NBEB cells according to manufacturer's instructions (RNeasy Plus Mini Extraction kit (#74134) (Qiagen, CA). RNA (1 μg) was reverse transcribed into cDNA using the cDNA synthesis High-Capacity RNA-to-cDNA™ Kit. Quantitative PCR was performed using Fast SYBR™ Green Master Mix according to the manufacturer's protocol. Beta-actin was used as a housekeeping gene. Relative expression was calculated using the 2(−ΔCt) method. The qPCR primer sequences can be found in supplementary materials.

SMILES: COc1ccc(-c2noc(-c3ccc(NCCCN4CCCC4)nn3)n2)cc1 [MY-1, 6-(3-(4-methoxyphenyl)-1,2,4-oxadiazol-5-yl)-N-(3-(pyrrolidin-1-yl)propyl)pyridazin-3-amine]
- binding affinities (KD) to other G4s [1]: no significant quenching behavior

SMILES: COc1ccc(-c2noc(-c3ccc(NCCCNc4c5ccc(Cl)cc5nc5ccc(OC)cc45)nn3)n2)cc1 [B33, N^1-(6-chloro-2-methoxyacridin-9-yl)-N^3-(6-(3-(4-methoxyphenyl)-1,2,4-oxadiazol-5-yl)pyridazin-3-yl)propane-1,3-diamine]
- binding to dsDNA on SPR [2]: did not show any binding to dsDNA
- Kd [3]: 151 ± 26 nM
- Kd [4]: 1100 ± 400 nM

SMILES: COc1ccc(-c2noc(-c3ccc(NCCCN4CCCCCC4)nn3)n2)cc1 [MY-8, N-(3-(azepan-1-yl)propyl)-6-(3-(4-methoxyphenyl)-1,2,4-oxadiazol-5-yl)pyridazin-3-amine]
- MYCN mRNA level [5]: clear decreases of mRNA level
